In the assay the target is T1, human RXFP1 (Homo sapiens, UniProt Q9HBX9).
T1 construct: expressed in transfected cells
T1 sequence (Q9HBX9 1-757): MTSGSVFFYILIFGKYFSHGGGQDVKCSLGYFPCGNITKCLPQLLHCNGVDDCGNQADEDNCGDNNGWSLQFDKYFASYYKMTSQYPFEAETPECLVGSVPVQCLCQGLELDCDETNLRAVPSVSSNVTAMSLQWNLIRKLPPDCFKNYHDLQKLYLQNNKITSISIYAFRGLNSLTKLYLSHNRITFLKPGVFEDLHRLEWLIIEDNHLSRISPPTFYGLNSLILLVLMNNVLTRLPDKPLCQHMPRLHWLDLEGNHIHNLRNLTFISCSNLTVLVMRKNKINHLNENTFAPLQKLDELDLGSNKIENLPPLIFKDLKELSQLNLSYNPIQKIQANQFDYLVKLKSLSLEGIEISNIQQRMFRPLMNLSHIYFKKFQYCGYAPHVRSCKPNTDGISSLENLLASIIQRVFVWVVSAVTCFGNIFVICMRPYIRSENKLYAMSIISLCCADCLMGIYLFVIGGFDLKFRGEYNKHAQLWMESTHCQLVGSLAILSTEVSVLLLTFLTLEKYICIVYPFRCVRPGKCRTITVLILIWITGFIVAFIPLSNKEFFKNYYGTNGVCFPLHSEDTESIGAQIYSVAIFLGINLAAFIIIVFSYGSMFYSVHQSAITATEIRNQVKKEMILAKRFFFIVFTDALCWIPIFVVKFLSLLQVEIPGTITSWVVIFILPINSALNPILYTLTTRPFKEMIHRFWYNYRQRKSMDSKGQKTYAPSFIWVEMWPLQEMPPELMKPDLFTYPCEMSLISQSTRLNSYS
Kind of assay: RXFP1 cAMP assay (hRXFP1 HEK293 cAMP assay, HTRF). It is filed as cell-based. The settings on record: HEK293 cells stably expressing human RXFP1, 30 min at room temperature, read-out: cAMP hRXFP1 HEK293 Assay EC50. In outline: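 hRXFP1-HEK293 stable line; HBSS + Ca/Mg, 20 mM HEPES, 0.05% BSA, 0.5 mM IBMX; cpd 0.010 nM–50 μM, 2% DMSO; 30 min RT; lysis, HTRF cAMP detection; 4-PL fit.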
A general note: cAMP levels reflect the balance of adenylyl cyclase and phosphodiesterase activity.
As to `COc1ccc(C2=NOC3COCC23)cc1C(=O)N[C@H]1[C@@H](C(=O)N[C@H](C)C2CCC2)[C@H]2CC[C@@H]1/C2=C\C1CC1` (stereo partly shown) [compound 507], the 50% effective concentration (EC50) stood at 12.9 nM.

In the case of `COc1ccc(C2=NOC3COCC23)cc1C(=O)N[C@H]1[C@@H](C(=O)NC(C)(C)C(C)(C)C)[C@H]2CC[C@@H]1/C2=C\C1CC1` (stereo partly shown) [compound 508], the 50% effective concentration (EC50) is 13 nM. In the case of `COc1ccc(C2=NOC3COCC23)cc1C(=O)N[C@H]1[C@@H](C(=O)N[C@H](C)c2ccccc2C(F)(F)F)[C@H]2CC[C@@H]1/C2=C\C1CC1` (stereo partly shown) [compound 510] it was 15.2 nM; in that of `COC(=O)C1CC2ON=C(c3ccc(OC)c(C(=O)N[C@H]4[C@@H](C(=O)Nc5ccc(F)c(C(F)(F)F)c5)[C@H]5CC[C@@H]4/C5=C\C4CC4)c3)C2C1` (stereo partly shown) [compound 512], 15.7 nM.

For `COc1ccc(C2=NOC3CC(C(N)=O)CC23)cc1C(=O)N[C@H]1[C@@H](C(=O)NCC(C)(C)C)[C@H]2CC[C@@H]1/C2=C\C1CC1` (stereo partly shown) [compound 516], the EC50 worked out at 17.6 nM. In the case of `COc1ccc(C2=NOC3COCC23)cc1C(=O)N[C@H]1[C@@H](C(=O)NCCc2ccccc2C)[C@H]2CC[C@@H]1/C2=C\C1CC1` (stereo partly shown) [compound 520] it was 19.3 nM; in that of `COc1ccc(C2=NOC3COCC23)cc1C(=O)N[C@H]1[C@@H](C(=O)NC(C2CC2)C2CC2)[C@H]2CC[C@@H]1/C2=C\C1CC1` (stereo partly shown) [compound 521], 19.5 nM. As to `COc1ccc(C2=NOC3COCC23)cc1C(=O)N[C@H]1[C@@H](C(=O)NCC2(C)CC2)[C@H]2CC[C@@H]1/C2=C\C1CC1` (stereo partly shown) [compound 522], the concentration for a half-maximal effect (EC50) came out at 21.1 nM. The figure for `COc1ccc(C2=NOC3CC(CO)CC23)cc1C(=O)N[C@H]1[C@@H](C(=O)Nc2ccc(F)c(C(F)(F)F)c2)[C@H]2CC[C@@H]1C2CC1CCC1` (stereo partly shown) [compound 523] is 21.3 nM. Take `COc1ccc(N2CC(CO)CC2=O)cc1C(=O)N[C@H]1[C@@H](C(=O)Nc2ccc(F)c(C(F)(F)F)c2)[C@H]2CC[C@@H]1/C2=C\C1CC1` (stereo partly shown) [compound 526]: the half-maximal effective concentration (EC50) was determined as 22.4 nM.

Turning to `COc1ccc(C2CN(C(=O)N3CCC(O)CC3)C2)cc1C(=O)N[C@H]1[C@@H](C(=O)Nc2ccc(F)c(C(F)(F)F)c2)[C@H]2CC[C@@H]1/C2=C\C1CC1` [compound 527], the half-maximal effective concentration (EC50) turned out to be 22.4 nM. In the case of `COc1ccc(-c2noc(CCO)c2CCO)cc1C(=O)N[C@H]1[C@@H](C(=O)Nc2ccc(F)c(C(F)(F)F)c2)[C@H]2CC[C@@H]1/C2=C\C1CC1` [compound 531] it was 22.7 nM; in that of `COc1cc(C)c(C2=NOC3COCC23)cc1C(=O)N[C@H]1[C@@H](C(=O)Nc2ccc(F)c(C(F)(F)F)c2)[C@H]2CC[C@@H]1/C2=C\C1CC1` (stereo partly shown) [compound 532], 22.9 nM. For the molecule `COc1ccc(C2=NOC3CC(CO)CC23)cc1C(=O)N[C@H]1[C@@H](C(=O)Nc2ccc(F)c(C(F)(F)F)c2)[C@H]2CC[C@@H]1/C2=C\C(F)(F)F` (stereo partly shown) [compound 533], the EC50 amounted to 23.4 nM. The figure for `COc1ccc(C2=NOC3COCC23)cc1C(=O)N[C@H]1[C@@H](C(=O)N[C@H](C)C2CCCC2)[C@H]2CC[C@@H]1/C2=C\C1CC1` (stereo partly shown) [compound 535] is 24 nM. The figure for `COc1ccc(C2=NOC3CCCCCCC23)cc1C(=O)N[C@H]1[C@@H](C(=O)Nc2ccc(F)c(C(F)(F)F)c2)[C@H]2CC[C@@H]1/C2=C\C1CC1` (stereo partly shown) [compound 537] is 26 nM; for `COc1ccc(C2=NOC3COCC23)cc1C(=O)N[C@H]1[C@@H](C(=O)N[C@@H]2CCCc3ccccc32)[C@H]2CC[C@@H]1/C2=C\C1CC1` (stereo partly shown) [compound 538] it is 26.3 nM.

`COc1ccc(C2=NOC3COCC23)cc1C(=O)N[C@H]1[C@@H](C(=O)NCc2c(C)cccc2C)[C@H]2CC[C@@H]1/C2=C\C1CC1` (stereo partly shown) [compound 540]: the 50% effective concentration (EC50) stood at 29.4 nM. The figure for `COc1ccc(C2=NOC3COCC23)cc1C(=O)N[C@H]1[C@@H](C(=O)N[C@@H](C)C(C)(C)C)[C@H]2CC[C@@H]1/C2=C\C1CC1` (stereo partly shown) [compound 541] is 30 nM.

Turning to `COc1ccc(C2=NOC3CC(O)CC23)cc1C(=O)N[C@H]1[C@@H](C(=O)Nc2ccc(F)c(C(F)(F)F)c2)[C@H]2CC[C@@H]1/C2=C\C(F)(F)F` (stereo partly shown) [compound 543], the 50% effective concentration (EC50) was determined as 30.5 nM. In the case of `COc1ccc(C2=NOC3COCC23)cc1C(=O)N[C@H]1[C@@H](C(=O)NC(C)(C)C)[C@H]2CC[C@@H]1/C2=C\C1CC1` (stereo partly shown) [compound 545] it was 31.5 nM.

For the molecule `COc1ccc(C2=NOC(COCCO)C2)cc1C(=O)N[C@H]1[C@@H](C(=O)Nc2ccc(F)c(C(F)(F)F)c2)[C@H]2CC[C@@H]1/C2=C\C1CC1` (stereo partly shown) [compound 546], the EC50 stood at 32.1 nM. Consider `COc1ccc(C2=NOC3CC(CO)CC23)cc1C(=O)N[C@H]1[C@@H](C(=O)Nc2ccc(F)c(C(F)(F)F)c2)[C@H]2CC[C@@H]1C2CC(F)(F)F` (stereo partly shown) [compound 550], for which the 50% effective concentration (EC50) was 34.9 nM. The figure for `COCC1CC(c2ccc(OC)c(C(=O)N[C@H]3[C@@H](C(=O)Nc4ccc(F)c(C(F)(F)F)c4)[C@H]4CC[C@@H]3C4=CC3CC3)c2)=NO1` (stereo partly shown) [compound 551] is 36.6 nM; for `COc1ccc(C2=NOC3COCC23)cc1C(=O)N[C@H]1[C@@H](C(=O)NC2CCCCC2)[C@H]2CC[C@@H]1/C2=C\C1CC1` (stereo partly shown) [compound 552] it is 36.7 nM. In the case of `CCC(CC)CNC(=O)[C@@H]1[C@H](NC(=O)c2cc(C3=NOC4COCC34)ccc2OC)[C@@H]2CC[C@H]1/C2=C/C1CC1` (stereo partly shown) [compound 553] it was 37.4 nM; in that of `COc1ccc(C2CCN(C(=O)C(C)(C)O)C2)cc1C(=O)N[C@@H]1C2CCC(C2=CC2CC2)[C@@H]1C(=O)Nc1ccc(F)c(C(F)(F)F)c1` (stereo partly shown) [compound 555], 41.4 nM. In the case of `COc1ccc(C2=NOC3COCC23)cc1C(=O)N[C@H]1[C@@H](C(=O)NC2CC=CC2)[C@H]2CC[C@@H]1/C2=C\C1CC1` (stereo partly shown) [compound 559] it was 44.9 nM; in that of `COc1ccc([C@H]2CO[C@@H]3[C@H]2OC[C@@H]3O)cc1C(=O)N[C@H]1[C@@H](C(=O)Nc2ccc(F)c(C(F)(F)F)c2)[C@H]2CC[C@@H]1/C2=C\C1CC1` [compound 560], 45.3 nM. As for `COc1ccc(C2=NOC3COCC23)cc1C(=O)N[C@H]1[C@@H](C(=O)NCC(C)(C)OC)[C@H]2CC[C@@H]1/C2=C\C1CC1` (stereo partly shown) [compound 564], the EC50 came out at 47.3 nM. In the case of `COc1ccc(C2CCN(CC(C)(C)O)C2)cc1C(=O)N[C@@H]1C2CCC(C2=CC2CC2)[C@@H]1C(=O)Nc1ccc(F)c(C(F)(F)F)c1` (stereo partly shown) [compound 568] it was 59.4 nM.

With `COc1ccc(C2=NOC3COCC23)cc1C(=O)N[C@H]1[C@@H](C(=O)NCc2c(Cl)cccc2Cl)[C@H]2CC[C@@H]1/C2=C\C1CC1` (stereo partly shown) [compound 570], the EC50 is 62.7 nM. In the case of `COc1ccc(C2=NOC3COCC23)cc1C(=O)N[C@H]1[C@@H](C(=O)NCC2(c3ccccc3)CC2)[C@H]2CC[C@@H]1/C2=C\C1CC1` (stereo partly shown) [compound 572] it was 66.4 nM; in that of `COc1ccc(C2=NOC3COCC23)cc1C(=O)N[C@H]1[C@@H](C(=O)N[C@@H]2CCc3ccccc32)[C@H]2CC[C@@H]1/C2=C\C1CC1` (stereo partly shown) [compound 577], 70.7 nM; in that of `COc1ccc(C2=NOC3COCC23)cc1C(=O)N[C@H]1[C@@H](C(=O)NCc2cccc(Cl)c2Cl)[C@H]2CC[C@@H]1/C2=C\C1CC1` (stereo partly shown) [compound 582], 74.9 nM. The figure for `COc1ccc(C2=NOC3COCC23)cc1C(=O)N[C@H]1[C@@H](C(=O)NC2(C(C)C)CC2)[C@H]2CC[C@@H]1/C2=C\C1CC1` (stereo partly shown) [compound 584] is 77.3 nM; for `COc1ccc(C2=NOC3COCC23)cc1C(=O)N[C@H]1[C@@H](C(=O)NCc2ccccc2C)[C@H]2CC[C@@H]1/C2=C\C1CC1` (stereo partly shown) [compound 585] it is 78.3 nM. In the case of `COc1ccc(C2=NOC3COCC23)cc1C(=O)N[C@H]1[C@@H](C(=O)NCC2C(C)(C)C2(C)C)[C@H]2CC[C@@H]1/C2=C\C1CC1` (stereo partly shown) [compound 586] it was 79.1 nM; in that of `COc1ccc(C2=NOC3COCC23)cc1C(=O)N[C@H]1[C@@H](C(=O)NCc2ccccc2OC(F)(F)F)[C@H]2CC[C@@H]1/C2=C\C1CC1` (stereo partly shown) [compound 588], 82 nM; in that of `COc1ccc(C2=NOC3COCC23)cc1C(=O)N[C@H]1[C@@H](C(=O)NCC2CCCC2)[C@H]2CC[C@@H]1/C2=C\C1CC1` (stereo partly shown) [compound 592], 87.1 nM.

For the molecule `COc1ccc(C2=NOC3(CCNC3)C2)cc1C(=O)N[C@H]1[C@@H](C(=O)Nc2ccc(F)c(C(F)(F)F)c2)[C@H]2CC[C@@H]1/C2=C\C1CC1` (stereo partly shown) [compound 593], the EC50 is 89.8 nM. The figure for `COc1ccc(C2=NOC3COCC23)cc1C(=O)N[C@H]1[C@@H](C(=O)Nc2ccccc2C)[C@H]2CC[C@@H]1/C2=C\C1CC1` (stereo partly shown) [compound 596] is 102 nM. The figure for `COc1ccc(C2=NOC3COCC23)cc1C(=O)N[C@H]1[C@@H](C(=O)NCC2CCC2)[C@H]2CC[C@@H]1/C2=C\C1CC1` (stereo partly shown) [compound 597] is 102 nM.

The term EC50 denotes the concentration needed to bring the measured effect to its halfway point.

(Values after patent publication US20250221966A1, “RXFP1 AGONISTS” (BRISTOL-MYERS SQUIBB COMPANY, priority 2021, published 2025).)
